From US20040067167A1, “Methods and apparatus for optophoretic diagnosis of cells and particles” (Genoptix, Inc., priority 2002, published 2004)

What was measured:
T cells = experiment: Time-of-flight (TOF) optophoretic testing of activated and unactivated T cells; assay type: cell-based; settings: T cells activated with 0.5 μml PMA and 50 ng/ml ionomycin together, overnight, compared to unstimulated T cells (FIG. 46)
Source text: (§1) The system includes multiple, preferably three, detecting positions, 31, 32 and 33. The detecting positions 31, 32, 33, may be associated with detection of times, e.g., t1, t2, t3. The times may be absolute, relative or elapsed. The two outermost detecting positions, i.e., 31 and 33 in this example, are separated by a distance L. A representative length L when detecting biological particles would be substantially 200 microns or less. The difference between the first two detecting positions t1, t2, define a time interval T1. T1 may also be associated with a first detection zone corresponding to the motion of the particle 36 through the zone T1. The second and third detecting positions t2, t3, define a second detection zone T2. The second detection zone also corresponds to the time difference between t2, t3. In one preferred embodiment, the distance between t2 t3 is equal to the distance between t1 t2.
In operation, the cell or particle 36 flows from the inlet 22 through the channel 20 through the outlet 24. For biological detection purposes, representative particle speeds are from substantially 50 to substantially 200 microns per second. As the cell or particle 36 flows through the first detection zone T1, the time-of-flight through that zone is measured, that is the time it takes for the cell or particle 36 to move from position t1 to t2. An optical gradient 38 is disposed within zone T2. […]

HL60 cells = experiment: Time-of-flight (TOF) optophoretic testing of HL60 cells treated with DMSO; assay type: cell-based; settings: 1% DMSO, after 40 hours of treatment, compared to non-treated HL60 cells (FIGS. 44 and 45)
Source text: as §1, with “t2. In operation, the cell or particle 36 flows from the inlet 22 through the channel 20 through the outlet 24. For biological detection purposes, representative particle speeds are from substantially 50 to substantially 200 microns per second. As the cell or particle 36 flows through the first detection zone T1, the time-of-flight through that zone is measured, that is the time it takes for the cell or particle 36 to move from position t1 to t2. An optical gradient 38 is disposed within zone T2. […]” for “t2.”

| Structure (SMILES) | TOF ratio t2/t1 (T cells) | TOF ratio t2/t1 (HL60 cells) |
| --- | --- | --- |
| CCCCCCCCCCCCCC(=O)O[C@@H]1[C@@H](C)[C@@]2(O)[C@@H](C=C(CO)C[C@]3(O)C(=O)C(C)=C[C@@H]23)[C@@H]2C(C)(C)[C@]12OC(C)=O [PMA, Phorbol mystirate acetate] | lower TOF ratio |  |
| C[C@H](CCC(=O)O)C[C@H](C)C[C@H](C)C(=O)/C=C(\O)[C@H](C)C[C@H](C)C/C=C/[C@@H](C)[C@@H](O)[C@@H](C)[C@@H](O)C[C@@H]1CC[C@@](C)([C@H]2CC[C@@](C)([C@@H](C)O)O2)O1 [ionomycin] | lower TOF ratio |  |
| C[S+](C)[O-] [DMSO, dimethyl sulfoxide] |  | lower TOF ratio |
